The values that follow come from patent publication US6323365A (Yissum Research Development Company of the Hebrew …, priority 2000, dated 2001).

The subject of one data set is seizure spread. The data set is described as follows: maximal electroshock (MES) test. Conditions: for ED50: Rattus norvegicus, po, read-out: MES anticonvulsant activity (ED50). In general terms: Protection in the maximal electroshock model is a classic sign of anticonvulsant action.
The next data set is described as follows: in vivo. Conditions: rat, po.
In another data set the test system is seizure threshold. Nature of the data set: subcutaneous metrazol (sc Met) test. As to conditions: Rattus norvegicus, po, read-out: sc Met anticonvulsant activity (ED50).
A further data set deals with offspring. Conditions: cited from earlier work.

By ED50 is commonly meant the dose that gives a 50% effect, or the effect in half of the subjects. In the case of `CCCC(CCC)C(=O)NCC(C)O` (racemic) [HP-VPD (rac)], the “potency in MES test relative to VPA” value in the data set with seizure spread (MES test, vs VPA) was “five times more potent than VPA”. The median effective dose (ED50) with seizure spread was 92 mg/kg; with seizure threshold, over 250 mg/kg. In addition, the “PI-MES (protective index): TD50/ED50” value in the data set on seizure spread (oral, rats, MES) is listed as over 2.7. Further, the TD50 in “in vivo” was over 250 mg/kg.
As for `CCCC(CCC)C(=O)NC[C@@H](C)O` [(R)-HP-VPD, N-(2-OH-propyl)valpromide], the ED50 with seizure spread amounted to 117 mg/kg. Also, in the data set with seizure spread (oral, rats, MES), the “PI-MES (protective index): TD50/ED50” value is over 4.3. The compound also yielded a TD50 in the data set “in vivo” of over 500 mg/kg.
As for `CCCC(CCC)C(=O)NC[C@H](C)O` [(S)-HP-VPD, N-(2-OH-propyl)valpromide], the “potency in MES test relative to (R)-HP-VPD” value with seizure spread (MES test, vs (R)-HP-VPD (II)) is on record as “more than two times more potent than (R)-HP-VPD”. Further, the “SI (stereoselective index) = (R)-HP-VPD/(S)-HP-VPD” value in the data set on seizure spread (MES, oral, rats) is on record as 2.4. In addition, the 50% effective dose (ED50) with seizure spread was 48 mg/kg. The “PI-MES (protective index): TD50/ED50” value with seizure spread (oral, rats, MES) is recorded as over 13.5. Also, the TD50 in the data set “in vivo” was over 650 mg/kg.
For `CCCC(CCC)C(=O)O` [VPA, Valproic acid, reference compound], the ED50 with seizure spread is 490 mg/kg; with seizure threshold it was 180 mg/kg. In addition, in the data set on offspring, the teratogenicity result is listed as “associated with teragenecity”.
